Measurements published in patent publication US20240150377A1, “MODULATORS OF CYSTIC FIBROSIS TRANSMEMBRANE CONDUCTANCE REGULATOR” (VERTEX PHARMACEUTICALS INCORPORATED, priority 2020, published 2024).
Like-named read-outs stand apart in the source and are kept apart here. Values belong to the molecule of their own block, whether it stands above or below them.

Target: T1, CFTR (Homo sapiens, UniProt P13569, DEL508-508)
T1 construct: endogenous in cells; host or cells: primary human bronchial epithelial cells from CF subjects (F508del/MF-HBE), differentiated at air-liquid interface
Assay: HBE assay: Ussing chamber assay of CFTR-mediated short-circuit currents
Assay type: cell-based
Conditions: for EC50: read-out: HBE EC50
In short: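 CFTR-mediated Isc (μA/cm²) equals the peak response to apical 20 μM forskolin minus the residual after a 20 μM each BPO/GlyH-101/CFTR inhibitor 172 cocktail, recorded in Ussing chambers at Vhold 0 mV, 37 °C, pH 7.4, with 30 μM apical amiloride. Cells were F508del/MF HBE cultures preincubated 18-24 h with corrector (concentration range or 10 μM) plus 1 μM ivacaftor in 20% human serum.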

[1] = Table 11, read-out: HBE Max Activity (%)
[2] = Table 12, at 10 μM, read-out: HBE Activity at 10 μM (%)
[3] = Table 13, at 10 μM, read-out: HBE Activity at 10 μM (%)
[4] = Table 13, read-out: HBE Max Activity (%)
[5] = Table 12, read-out: HBE Max Activity (%)

T1 sequence (P13569 with tags, fused parts or gaps DEL508-508): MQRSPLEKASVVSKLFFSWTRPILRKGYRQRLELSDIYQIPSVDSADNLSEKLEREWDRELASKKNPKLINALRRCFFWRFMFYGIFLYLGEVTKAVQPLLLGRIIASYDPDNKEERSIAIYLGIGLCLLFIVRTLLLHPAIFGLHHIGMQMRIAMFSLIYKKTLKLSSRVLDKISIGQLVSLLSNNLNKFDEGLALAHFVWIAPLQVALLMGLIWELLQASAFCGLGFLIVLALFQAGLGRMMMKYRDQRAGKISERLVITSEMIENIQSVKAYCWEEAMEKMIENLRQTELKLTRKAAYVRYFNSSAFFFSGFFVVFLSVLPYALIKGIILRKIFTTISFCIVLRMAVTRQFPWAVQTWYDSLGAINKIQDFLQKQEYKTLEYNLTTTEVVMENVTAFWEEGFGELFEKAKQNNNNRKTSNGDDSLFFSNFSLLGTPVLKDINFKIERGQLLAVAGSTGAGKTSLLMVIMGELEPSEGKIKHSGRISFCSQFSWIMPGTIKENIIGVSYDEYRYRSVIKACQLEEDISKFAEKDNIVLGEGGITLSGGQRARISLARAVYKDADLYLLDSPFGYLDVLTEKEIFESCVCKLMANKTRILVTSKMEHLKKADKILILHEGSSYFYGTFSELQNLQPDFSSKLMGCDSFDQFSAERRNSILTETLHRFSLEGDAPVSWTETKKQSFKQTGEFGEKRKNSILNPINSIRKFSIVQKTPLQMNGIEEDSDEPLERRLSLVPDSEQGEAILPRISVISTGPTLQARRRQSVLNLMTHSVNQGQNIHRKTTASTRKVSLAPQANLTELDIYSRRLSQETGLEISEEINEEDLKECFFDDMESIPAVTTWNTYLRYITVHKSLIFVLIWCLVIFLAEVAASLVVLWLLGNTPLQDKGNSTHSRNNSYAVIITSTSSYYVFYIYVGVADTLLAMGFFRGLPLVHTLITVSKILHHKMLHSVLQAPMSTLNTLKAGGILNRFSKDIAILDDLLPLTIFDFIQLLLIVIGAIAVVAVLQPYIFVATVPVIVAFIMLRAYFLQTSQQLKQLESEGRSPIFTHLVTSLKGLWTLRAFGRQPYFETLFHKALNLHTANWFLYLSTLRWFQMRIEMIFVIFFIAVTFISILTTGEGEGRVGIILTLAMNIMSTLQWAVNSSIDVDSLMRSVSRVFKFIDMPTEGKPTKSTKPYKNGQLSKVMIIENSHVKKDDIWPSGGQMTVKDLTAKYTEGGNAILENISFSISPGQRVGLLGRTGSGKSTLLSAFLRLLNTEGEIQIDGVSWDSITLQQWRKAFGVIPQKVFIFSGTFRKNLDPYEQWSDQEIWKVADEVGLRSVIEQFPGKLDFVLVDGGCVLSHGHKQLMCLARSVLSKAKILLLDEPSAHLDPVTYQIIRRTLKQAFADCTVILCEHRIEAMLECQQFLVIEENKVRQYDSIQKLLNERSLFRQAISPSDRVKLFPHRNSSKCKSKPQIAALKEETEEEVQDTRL

EC50 (Table 11): < 1000 nM
Emax [1]: > 60%
Structure (SMILES): Cc1cccc(C)c1-c1cc2nc(n1)NS(=O)(=O)c1cccc(c1)C(=O)N(Cc1ncc(N3CCC(C)(C)C3)cn1)[C@H](CC(C)C)CO2 [Compound 606]

EC50 (HBE assay): < 1000 nM
Emax (HBE assay, read-out: HBE Max activity (%)): > 60%
Structure (SMILES): Cc1cccc(C)c1-c1cc2nc(n1)NS(=O)(=O)c1cccc(c1)C(=O)N(Cc1ncc(OC3CCC3)cn1)[C@H](CC1CCC1)CO2 [Compound 1426]

activation at 10 µM [2]: > 600%
Structure (SMILES): Cc1cccc(C)c1-c1cc2nc(n1)NS(=O)(=O)c1cccc(c1)C(=O)N(Cc1ncc(C(C)C)n1C)[C@H](CC(C)(C)C)CO2 [Compound 266]

activation at 10 µM [2]: > 600%
Structure (SMILES): Cc1cccc(C)c1-c1cc2nc(n1)NS(=O)(=O)c1cccc(c1)C(=O)N(CC(=O)NCc1cnccn1)[C@H](CC(C)(C)C)CO2 [Compound 216]

EC50 (HBE assay): < 1000 nM
Structure (SMILES): CCC(C)Oc1cnc(CN2C(=O)c3cccc(c3)S(=O)(=O)Nc3nc(cc(-c4c(C)cccc4C)n3)OC[C@H]2CC(C)(C)C)nc1 (stereo partly drawn) [Compound 1374]

activation at 10 µM [2]: 30 to 60%
Structure (SMILES): Cc1cccc(C)c1-c1cc2nc(n1)NS(=O)(=O)c1cccc(c1)C(=O)N(Cc1cnc(N3CCOCC3)s1)[C@H](CC(C)(C)C)CO2 [Compound 693]

activation at 10 µM [3]: > 600%
Structure (SMILES): Cc1cccc(C)c1-c1cc2nc(n1)NS(=O)(=O)c1cccc(c1)C(=O)N(Cc1ccc(N3CCC(C(C)(C)C)CC3)cn1)[C@H](CC(C)(C)C)CO2 [Compound 258]

activation at 10 µM [3]: > 600%
Structure (SMILES): Cc1cccc(C)c1-c1cc2nc(n1)NS(=O)(=O)c1cccc(c1)C(=O)N(Cc1cc(NC(C)C)ccn1)[C@H](CC(C)(C)C)CO2 [Compound 995]

activation at 10 µM (HBE assay, 10 μM, read-out: HBE Activity at 10 μM (%)): > 60%
Structure (SMILES): Cc1cccc(C)c1-c1cc2nc(n1)NS(=O)(=O)c1cccc(c1)C(=O)N(Cc1ncc(N3CC(F)C3)cn1)[C@H](CC(C)(C)C)CO2 [Compound 1498]

activation at 10 µM (Table 10, at 10 μM, read-out: HBE activity at 10 (μM) (%)): > 60%
Structure (SMILES): Cc1cccc(C)c1-c1nc2nc(c1C)OC[C@@H](CC(C)(C)C)N1Cc3cc(F)c(O)c(F)c3OC1c1cccc(c1)S(=O)(=O)N2 (stereo partly drawn) [Compound 763]

EC50 (Table 13): < 1000 nM
Emax [4]: > 60%
Structure (SMILES): Cc1cccc(C)c1-c1cc2nc(n1)NS(=O)(=O)c1cccc(c1)C(=O)N(Cc1cccc(N(CC3CC3)C(C)C)n1)[C@H](CC(C)(C)C)CO2 [Compound 235]

EC50 (Table 11): 1000 to 3000 nM
Emax [1]: > 60%
Structure (SMILES): Cc1cccc(C)c1-c1cc2nc(n1)NS(=O)(=O)c1cccc(c1)C(=O)N(Cc1ncc(N3CCC4(CC3)CC4)cn1)[C@H](CC(C)(C)C)CO2 [Compound 708]

EC50 (Table 13): < 1000 nM
Emax [4]: > 60%
Structure (SMILES): Cc1cccc(C)c1-c1cc2nc(n1)NS(=O)(=O)c1cccc(c1)C(=O)N(Cc1ncc(N3CCOC(C)(C)C3)cn1)[C@H](CC(C)(C)C)CO2 [Compound 1156]

EC50 (Table 12): < 1000 nM
Emax [5]: > 60%
Structure (SMILES): Cc1cccc(C)c1-c1cc2nc(n1)NS(=O)(=O)c1cccc(c1)C(=O)N(Cc1cccc(N(C)C3CC4(CC4)C3)n1)[C@H](CC(C)(C)C)CO2 [Compound 581]

EC50 (Table 10): < 1000 nM
Emax (Table 10, read-out: HBE Max activity (%)): > 60%
Structure (SMILES): COC[C@]1(O)CC[C@@H](CN2C(=O)c3cccc(c3)S(=O)(=O)Nc3nc(cc(-c4c(C)cccc4C)n3)OC[C@H]2CC(C)(C)C)CC1 [Compound 907]

EC50 (Table 12): < 1000 nM
Emax [5]: > 60%
Structure (SMILES): Cc1cccc(C)c1-c1cc2nc(n1)NS(=O)(=O)c1cccc(c1)C(=O)N(Cc1ncc(N3CC[C@@](C)(O)C3)cn1)[C@H](CC(C)(C)C)CO2 [Compound 542]

EC50 (Table 12): < 1000 nM
Emax [5]: > 60%
Structure (SMILES): COC[C@@H]1CCCN1c1cncc(CN2C(=O)c3cccc(c3)S(=O)(=O)Nc3nc(cc(-c4c(C)cccc4C)n3)OC[C@H]2CC(C)(C)C)n1 [Compound 273]

activation at 10 µM [2]: > 600%
Structure (SMILES): Cc1cccc(C)c1-c1cc2nc(n1)NS(=O)(=O)c1cccc(c1)C(=O)N(Cc1ccc(C3CCCCC3)nc1)[C@H](CC(C)(C)C)CO2 [Compound 882]

EC50 (Table 11): < 1000 nM
Emax [1]: > 60%
Structure (SMILES): Cc1cccc(C)c1-c1cc2nc(n1)NS(=O)(=O)c1cccc(c1)C(=O)N(Cc1cccc(C(C)(C)O)n1)[C@H](CC(C)(C)C)CO2 [Compound 817]

activation at 10 µM [3]: > 600%
Structure (SMILES): Cc1cccc(C)c1-c1cc2nc(n1)NS(=O)(=O)c1cccc(c1)C(=O)N(CC(=O)NC1CCC(C)(C)CC1)[C@H](CC(C)(C)C)CO2 [Compound 179]
